This note sets out measurements from PubChem BioAssay (NCI).

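All cell lines were grown in 96-well plates and treated with compound for 48 hours. Definition used: TGI = concentration required for complete inhibition of growth.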

Among the test systems are HCT-15 colon; SNB-19 CNS; PC-3 prostate; HS 578T breast; A549 NSCLC; HOP-62 NSCLC; MCF7 breast; RPMI-8226 leukemia; LOX IMVI melanoma; NCI-H226 lung; IGROV1 ovarian; M14 melanoma; BT-549 breast; MDA-MB-435; MDA-MB-231 breast; MALME-3M melanoma; CCRF-CEM leukemia; OVCAR-4 ovarian; SF-295 CNS; SNB-75 CNS.
Holding throughout (experiment): inhibition of tumour cell growth, NCI panel, 48 h

As to `CC(=O)OC1O[C@@H](C(C)(C)O)CC[C@@H]1[C@H]1CC[C@@]2(C)C3=C(CC[C@]12C)[C@@]1(C)C[C@@H](OC(=O)CC(C)(O)CC(=O)O)[C@H](OC(C)=O)C(C)(C)C1CC3` (some centres undefined), the TGI in the assay with HCT-15 colon is 43.1 µM; with SNB-19 CNS, 34.6 µM; in the assay with PC-3 prostate it was 30.9 µM; in the assay with HS 578T breast it was 42.3 µM; in the assay with A549 NSCLC, 30.9 µM; in the assay on HOP-62 NSCLC it was 35.4 µM. In addition, the TGI came to 32.5 µM in the assay on MCF7 breast; 53.8 µM in the assay with RPMI-8226 leukemia; 32.6 µM with LOX IMVI melanoma; 49.6 µM in the assay on NCI-H226 lung; 33.6 µM in the assay with IGROV1 ovarian; 34.8 µM in the assay with M14 melanoma. Also, the TGI in the assay on BT-549 breast worked out at 29.9 µM; with MDA-MB-435, 31.4 µM; with MDA-MB-231 breast, 45.5 µM; in the assay with MALME-3M melanoma it was 34.1 µM; in the assay with CCRF-CEM leukemia it was 41.6 µM; in the assay with OVCAR-4 ovarian, 37.6 µM. Moreover, the TGI with SF-295 CNS came out at 32.4 µM.

With `O=S(=O)(O)c1ccc(N=Nc2ccc(N=Nc3c(O)ccc4ccccc34)cc2)cc1`, the TGI in the assay on HCT-15 colon, in the assay with SNB-19 CNS, in the assay with PC-3 prostate, in the assay with HS 578T breast, in the assay with A549 NSCLC and with HOP-62 NSCLC was greater than 100 µM each time. Moreover, the TGI in the assay on MCF7 breast, in the assay on RPMI-8226 leukemia, in the assay with LOX IMVI melanoma, in the assay with NCI-H226 lung, with IGROV1 ovarian and with SNB-75 CNS was greater than 100 µM each time. The TGI in the assay with M14 melanoma, with BT-549 breast, in the assay with MDA-MB-435, with MDA-MB-231 breast, with MALME-3M melanoma and in the assay on CCRF-CEM leukemia was greater than 100 µM each time. The TGI with OVCAR-4 ovarian and in the assay with SF-295 CNS was greater than 100 µM each time.

With `CSc1ncnc2c1cnn2CCCCO`, the TGI in the assay on HCT-15 colon, in the assay on SNB-19 CNS, in the assay with PC-3 prostate, in the assay on HS 578T breast, with A549 NSCLC and in the assay on HOP-62 NSCLC was greater than 100 µM throughout. Moreover, the TGI with MCF7 breast, in the assay with RPMI-8226 leukemia, with LOX IMVI melanoma, with NCI-H226 lung, in the assay with IGROV1 ovarian and with M14 melanoma was greater than 100 µM each time. In addition, the TGI in the assay with BT-549 breast, in the assay with MDA-MB-435, in the assay on MDA-MB-231 breast, in the assay with MALME-3M melanoma, with CCRF-CEM leukemia and with OVCAR-4 ovarian was greater than 100 µM throughout. The compound also yielded a TGI with SF-295 CNS greater than 100 µM.

With `CC1(C)OC(=C(C#N)C#N)C(C#N)=C1/C=C/c1ccncc1`, the TGI with HCT-15 colon turned out to be 3.79 µM; in the assay with SNB-19 CNS it was 6.16 µM; in the assay with PC-3 prostate, 4.62 µM; in the assay on HS 578T breast, 17.9 µM; in the assay with A549 NSCLC, 34.1 µM; in the assay on MCF7 breast, 4.28 µM. Further, the TGI was determined as 4.21 µM in the assay with RPMI-8226 leukemia; 3.51 µM with LOX IMVI melanoma; 4.65 µM with NCI-H226 lung; 4.21 µM in the assay with IGROV1 ovarian; 8.68 µM with SNB-75 CNS; 6.56 µM with M14 melanoma. Besides, the TGI in the assay with BT-549 breast stood at 3.18 µM; in the assay with MDA-MB-435, 10.6 µM; in the assay on MDA-MB-231 breast, 4.36 µM; with MALME-3M melanoma it was 6.31 µM; in the assay with CCRF-CEM leukemia it was 2.4 µM; in the assay on OVCAR-4 ovarian, 8.91 µM. Moreover, the TGI in the assay on SF-295 CNS worked out at 5.28 µM.

Consider `O=C1NN=C2C=C(c3ccc(Cl)cc3)CC(c3cccc(Cl)c3)C12` (centres undefined), for which the TGI with HCT-15 colon is 32.8 µM; in the assay on SNB-19 CNS, 36.1 µM; in the assay on PC-3 prostate it was greater than 100 µM; in the assay with HS 578T breast, 55 µM; in the assay on A549 NSCLC, 37.2 µM; with HOP-62 NSCLC, greater than 100 µM. For the same compound, the TGI in the assay with MCF7 breast is 48.5 µM; in the assay with RPMI-8226 leukemia it was 57 µM; with LOX IMVI melanoma, 33.4 µM; with NCI-H226 lung, 60.6 µM; in the assay with IGROV1 ovarian, 59.1 µM; in the assay with M14 melanoma, greater than 100 µM. The TGI in the assay on BT-549 breast was greater than 100 µM; in the assay with MDA-MB-435 it was 40.2 µM; in the assay on MDA-MB-231 breast it was 42.7 µM; in the assay on MALME-3M melanoma, greater than 100 µM; in the assay on CCRF-CEM leukemia, 71.7 µM; in the assay on OVCAR-4 ovarian, 66.5 µM. The TGI in the assay on SF-295 CNS was 38.4 µM.

As for `COC(=O)c1c(O)ccc2c1c1c(n2Cc2ccc(Cl)cc2Cl)C(=O)c2ccccc2C1`, the TGI in the assay with HCT-15 colon is greater than 100 µM; in the assay with SNB-19 CNS it was greater than 100 µM; in the assay on PC-3 prostate, 73.3 µM; in the assay with HS 578T breast it was greater than 100 µM; in the assay on A549 NSCLC, greater than 100 µM; in the assay with HOP-62 NSCLC it was greater than 100 µM. Besides, the TGI with MCF7 breast was 89.9 µM; in the assay on RPMI-8226 leukemia, 49 µM; in the assay on LOX IMVI melanoma, 61.9 µM; in the assay with NCI-H226 lung, 73.2 µM; with IGROV1 ovarian, greater than 100 µM; with SNB-75 CNS it was 58.7 µM. The TGI in the assay with M14 melanoma was greater than 100 µM; in the assay on BT-549 breast, greater than 100 µM; in the assay on MDA-MB-435, greater than 100 µM; in the assay on MDA-MB-231 breast, greater than 100 µM; in the assay with MALME-3M melanoma, greater than 100 µM; in the assay with CCRF-CEM leukemia, 71.3 µM. Further, in the assay with OVCAR-4 ovarian, the TGI came to 70.6 µM.

For `O=c1cc(-c2ccccc2)[nH]c2c(S)cccc12`, the TGI with HCT-15 colon, in the assay on SNB-19 CNS, with PC-3 prostate, with HS 578T breast, with A549 NSCLC and in the assay with HOP-62 NSCLC was greater than 100 µM in each case. Besides, the TGI in the assay with MCF7 breast was greater than 100 µM; in the assay on RPMI-8226 leukemia, greater than 100 µM; in the assay with NCI-H226 lung, 99.7 µM; with IGROV1 ovarian, greater than 100 µM; in the assay on SNB-75 CNS, greater than 100 µM; with M14 melanoma, greater than 100 µM. The TGI with BT-549 breast, in the assay on MDA-MB-435, with MDA-MB-231 breast, with MALME-3M melanoma, with CCRF-CEM leukemia and in the assay on OVCAR-4 ovarian was greater than 100 µM each time. In addition, the TGI in the assay on SF-295 CNS is greater than 100 µM.
